Reference: patent US9945862B2, “Biomarkers for predicting and assessing responsiveness of thyroid and kidney cancer subjects to lenvatinib compounds” (Eisai R&D Management Co., Ltd., priority 2011, dated 2018)

Columns and labels:
[1] = tested on: differentiated thyroid cancer patients; test: Best overall response / tumor response in differentiated thyroid cancer patients treated in phase II with E7080, by tumor mutation status; format: in vivo, human
Description: This experiment was directed at identifying amino acid mutations that are useful in predicting whether subjects respond to treatment with E7080 using three criteria of response: best overall response, tumor shrinkage, and progression free survival.
Tissue samples were obtained at surgery before the patients had received any therapy comprising E7080 and were routinely processed with formalin fixed, paraffin embedded tissues (FFPE). The protocol that was used was approved by the institutional review board, and informed consent was obtained from each subject. Tumor tissue samples from 27 patients, for which tissues were available, were used for mutation analysis. DNA was isolated from FFPE tumor blocks collected from patients participating in the trial. Genomic DNA was extracted from two to five 10 micron unstained sections by deparaffinization and Qiagen DNA Mini Kit Tissue Protocol with minor modification. For mutation detection, the SEQUENOM® (San Diego, Calif.) platform and the OncoCarta™ Panel v1.0 and OncoCarta™ Panel v3.0 were used (see, www.sequenom.com/Files/Genetic-Analysis—Graphics/All-Application—PDFs/AssayExplorer2010_1110-Web/). Sequenom's OncoCarta™ Panels are a set of pre-designed and pre-validated assays for efficient mutation screening. The OncoCarta™ Panel v1.0 genes and the number of mutations (in parentheses) are: ABL1 (14); AKT1 (7); AKT2 (2); BRAF (25); CDK4 (2); EGFR (40); ERBB2 (9); FGFR1 (2); FGRF3 (7); FLT3 (3); HRAS (10); JAK2 (1); KIT (32); KRAS (16); MET (5); NRAS (19); PDGFRA (11); PIK3CA (14); and RET (6). The OncoCarta™ Panel v3.0 genes and the number of mutations (in parentheses) are: ABL1 (2) AKT1 (1); APC (12); BRAF (19); CDKN2A (7); CSF1R (6); CTTNB1 (28); EGFR (32); ERBB2 (2); FLT3 (3); HRAS (2); JAK3 (3); KIT (3); KRAS (5); MET (6); MLH1 (1); MYC (6); PDGFRA (11); PIK3CA (4); PTEN (14); RB1 (11); RET (13); SRC (1); STK11 (12); P53 (7); and VH1 (7). […]
DNA was amplified using the OncoCarta™ PCR primer pools, unincorporated nucleotides were inactivated by shrimp alkaline phosphatase (SAP), and a single base extension reaction was performed using extension primers that hybridize immediately adjacent to the mutations and a custom mixture of nucleotides. Salts were removed by the addition of a cation exchange resin. Multiplexed reactions were spotted onto the SpectroChipII, and mutations, if present, were resolved by MALDI-TOF on the Compact Mass Spectrometer (Sequenom®, San Diego, Calif.). The OncoCarta™ Panel v1.0 (Sequenom®, San Diego, Calif.) consists of 24 pools of primer pairs and 24 pools of extension primers, and has the capacity to detect 225 mutations in 19 genes. The OncoCarta™ Panel v 3.0 consists of 24 pools of primer pairs and 24 pools of extension primers, and has the capacity to detect 218 mutations in 26 genes. Each pool consists of 5-9 primer pairs in the PCR reaction. Two types of assays have been designed in the OncoCarta panel, referred to as simple and complex. The simple assays are those in which a single assay is able to detect the amino acid changes at that codon. The complex assays are those that require more than one assay to identify codon changes or deletions and insertion, and thus are able to detect multiple different amino acid substitutions or deletions. An example of a complex assay involves the use of the KRAS_1 and KRAS_2 assays, which interrogates 2 different nucleotide positions within codon 12 and together identify all codon 12 amino acid changes. In the KRAS G12R mutation, the mutant allele has the codon CGT (Arginine) in contrast to the wild type allele which has the GGT (Glycine) codon. […]

[2] = tested on: thyroid, kidney and endometrial cancers, as well as melanoma; conditions: phase I; cited from earlier work
thyroglobulin = test: Serum thyroglobulin, chemiluminescent immunometric assay (IMMULITE 2000), pre- and post-treatment with E7080; format: in vivo, human; conditions: 48 days (within 2 cycles) after treatment; decrease continued to cycle 8
[3] = BRAF.KRAS.NRAS (any of gene) MU
[4] = BRAF.KRAS.NRAS (any of gene) WT
[5] = BRAF.KRAS.NRAS.VHL (any of gene) MU
[6] = BRAF.KRAS.NRAS.VHL (any of gene) WT

COc1cc2nccc(Oc3ccc(NC(=O)NC4CC4)c(Cl)c3)c2cc1C(N)=O [E7080, 4-(3-chloro-4-(cyclopropylaminocarbonyl)aminophenoxy)-7-methoxy-6-quinolinecarboxamide]
Number of patients with BOR PD [1, 3]: 0 | Number of patients with BOR PR [1, 3]: 10 | Number of patients with BOR SD [1, 3]: 1 | Number of patients with BOR PD [1, 4]: 2 | Number of patients with BOR PR [1, 4]: 3 | Number of patients with BOR SD [1, 4]: 6 | Number of patients with BOR PD [1, 5]: 1 | Number of patients with BOR PR [1, 5]: 10 | Number of patients with BOR SD [1, 5]: 1 | Number of patients with BOR PD [1, 6]: 1 | Number of patients with BOR PR [1, 6]: 3 | Number of patients with BOR SD [1, 6]: 6 | Number of patients with BOR PD ([1]; BRAF.KRAS.VHL (any of gene) MU): 2 | Number of patients with BOR PR ([1]; BRAF.KRAS.VHL (any of gene) MU): 8 | Number of patients with BOR SD ([1]; BRAF.KRAS.VHL (any of gene) MU): 0 | Number of patients with BOR PD ([1]; BRAF.KRAS.VHL (any of gene) WT): 0 | Number of patients with BOR PR ([1]; BRAF.KRAS.VHL (any of gene) WT): 8 | Number of patients with BOR SD ([1]; BRAF.KRAS.VHL (any of gene) WT): 5 | Number of patients with BOR PD ([1]; BRAF.NRAS (any of gene) MU): 0 | Number of patients with BOR PR ([1]; BRAF.NRAS (any of gene) MU): 8 | Number of patients with BOR SD ([1]; BRAF.NRAS (any of gene) MU): 1 | Number of patients with BOR PD ([1]; BRAF.NRAS (any of gene) WT): 2 | Number of patients with BOR PR ([1]; BRAF.NRAS (any of gene) WT): 5 | Number of patients with BOR SD ([1]; BRAF.NRAS (any of gene) WT): 6 | Number of patients with BOR PD ([1]; BRAF.VHL (any of gene) MU): 2 | Number of patients with BOR PR ([1]; BRAF.VHL (any of gene) MU): 6 | Number of patients with BOR SD ([1]; BRAF.VHL (any of gene) MU): 0 | Number of patients with BOR PD ([1]; BRAF.VHL (any of gene) WT): 0 | Number of patients with BOR PR ([1]; BRAF.VHL (any of gene) WT): 10 | Number of patients with BOR SD ([1]; BRAF.VHL (any of gene) WT): 5 | Number of patients with BOR PD ([1]; KRAS.NRAS (any of gene) MU): 0 | Number of patients with BOR PR ([1]; KRAS.NRAS (any of gene) MU): 8 | Number of patients with BOR SD ([1]; KRAS.NRAS (any of gene) MU): 0 | Number of patients with BOR PD ([1]; KRAS.NRAS (any of gene) WT): 2 | Number of patients with BOR PR ([1]; KRAS.NRAS (any of gene) WT): 5 | Number of patients with BOR SD ([1]; KRAS.NRAS (any of gene) WT): 7 | Number of patients with BOR PD ([1]; KRAS.NRAS.VHL (any of gene) MU): 1 | Number of patients with BOR PR ([1]; KRAS.NRAS.VHL (any of gene) MU): 8 | Number of patients with BOR SD ([1]; KRAS.NRAS.VHL (any of gene) MU): 0 | Number of patients with BOR PD ([1]; KRAS.NRAS.VHL (any of gene) WT): 1 | Number of patients with BOR PR ([1]; KRAS.NRAS.VHL (any of gene) WT): 5 | Number of patients with BOR SD ([1]; KRAS.NRAS.VHL (any of gene) WT): 7 | Patients with partial response (PR) ([1]; patients with either an NRAS or KRAS mutation): 8 out of 8 | Patients with partial response (PR) ([1]; patients without mutations in NRAS and KRAS): 5 out of 14 | Clinical outcome in differentiated thyroid cancer patients ([1]; phase II): Tumor response and prolonged disease stabilization were observed | Clinical response [2]: response to treatment was observed | Change in serum thyroglobulin levels after treatment (thyroglobulin): significantly decreased
